Data taken from publication PMC13578988, “No ancillary proteins are essential for the functional heterologous expression of the homomeric α6 nicotinic acetylcholine receptor from the brown castor tick Ixodes ricinus” (Current Research in Parasitology & Vector-borne Diseases, 2026).

Experiments:
Asu-ACR-16 = conditions: cited from earlier work
[1] = tested on: T1, Iricα6B (homomeric α6 nicotinic acetylcholine receptor, splice variant B); assay: two-electrode voltage clamp in Xenopus laevis oocytes expressing Iricα6B (agonist dose-response); type: cell-based, Ixodes ricinus
T1 construct: full-length Iricα6B, 517 amino acids (exon 3b only), homopentamer

SMILES | EC50 (Asu-ACR-16) | EC50 [1]
CC(=O)OCC[N+](C)(C)C [ACh, acetylcholine] | 5900 nM | 
CC(=O)OCC[N+](C)(C)C [acetylcholine] |  | 2000 nM
CN/C(=N/CC1CCOC1)N[N+](=O)[O-] (centres unmarked) [dinotefuran] |  | 0.42 nM
O=[N+]([O-])NC1=NCCN1Cc1ccc(Cl)nc1 [imidacloprid] |  | 11.6 nM
CN1CCC[C@H]1c1cccnc1 [nicotine] | 4500 nM | 
